Earlier results, collected in PMC6234229, “The role of loops B and C in determining the potentiation of GABAA receptors by midazolam” (Pharmacology Research & Perspectives, 2018).

What was measured:
[1] = tested on: α6‐containing GABAA receptors; details: cited from earlier work
α3β1γ2 receptors = tested on: α3β1γ2 receptors; set-up: method as in PMID 1646944, PMID 8381510; details: cited from earlier work

SMILES | potentiation of α6‐ vs α3‐containing GABAA receptors [1] | potentiation of α3β1γ2 vs α1β1γ2 receptors (α3β1γ2 receptors)
CC#CCOC(=O)c1c(C)nc2sc3c(c2c1N)CCC(O)C3 (stereo not drawn) [SB‐205384] | potentiate α6‐containing GABAA receptors even more strongly than α3 | –
CN1C(=O)CN=C(c2ccccc2F)c2cc([N+](=O)[O-])ccc21 [flunitrazepam] | – | potentiated α3β1γ2 receptors more than α1β1γ2 receptors
CN1C(=O)CN=C(c2ccccc2)c2cc(Cl)ccc21 [diazepam] | – | potentiated α3β1γ2 receptors more than α1β1γ2 receptors
